Experiments:
AHR [1] = biological target: T1, AHR (Homo sapiens, UniProt P35869); assay: In vitro assay 1: antagonism in human cell line (transactivation assay, kynurenic acid prestimulated); conditions: Assay 1: AHR-luc Hum Antagonism IC50 [M], 150 μM kynurenic acid, 20 hours, firefly luciferase
T1 sequence (P35869 11-848): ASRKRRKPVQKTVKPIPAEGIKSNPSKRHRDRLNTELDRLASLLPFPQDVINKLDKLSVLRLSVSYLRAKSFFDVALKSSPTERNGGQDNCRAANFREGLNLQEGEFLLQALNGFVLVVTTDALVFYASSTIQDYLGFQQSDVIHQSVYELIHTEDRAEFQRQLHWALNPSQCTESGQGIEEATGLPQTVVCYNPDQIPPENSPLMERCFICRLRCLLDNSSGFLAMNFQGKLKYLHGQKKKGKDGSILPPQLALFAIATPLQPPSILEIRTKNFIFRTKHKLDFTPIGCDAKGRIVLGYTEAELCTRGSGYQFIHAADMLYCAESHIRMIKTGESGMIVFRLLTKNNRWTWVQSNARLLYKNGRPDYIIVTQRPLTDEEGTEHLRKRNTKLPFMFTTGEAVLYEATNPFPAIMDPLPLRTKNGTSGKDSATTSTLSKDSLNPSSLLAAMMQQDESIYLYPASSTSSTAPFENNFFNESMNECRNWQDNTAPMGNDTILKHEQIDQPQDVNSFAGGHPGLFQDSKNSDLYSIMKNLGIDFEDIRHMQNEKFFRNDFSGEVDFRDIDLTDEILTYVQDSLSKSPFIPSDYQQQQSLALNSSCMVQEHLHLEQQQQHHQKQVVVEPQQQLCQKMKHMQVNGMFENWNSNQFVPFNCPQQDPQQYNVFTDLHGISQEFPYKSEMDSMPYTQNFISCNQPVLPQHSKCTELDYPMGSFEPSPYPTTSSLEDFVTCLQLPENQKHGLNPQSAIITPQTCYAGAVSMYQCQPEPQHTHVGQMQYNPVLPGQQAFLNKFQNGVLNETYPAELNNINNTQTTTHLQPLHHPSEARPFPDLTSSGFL

AHR [2] = biological target: T1, AHR; assay: In vitro assay 2: agonism in human cell line (transactivation assay); conditions: Assay 2: AHR-luc Hum Agonism IC50 [M], no kynurenic acid, 20 hours, firefly luciferase

Compound	IC50 (AHR [1]) [M]	IC50 (AHR [2]) [M]
C[C@H](O)CCNC(=O)c1cc(-c2ccc(Cl)cc2)nn(-c2cccc(F)c2)c1=O [Example 205, (+)-6-(4-Chlorophenyl)-2-(3-fluorophenyl)-N-[(3S)-3-hydroxybutyl]-3-oxo-2,3-dihydropyridazine-4-carboxamide]	2.12e-07	> 2e-05
O=C(NC1(CO)CCCC1)c1cc(-c2ccc(Cl)cc2)nn(-c2cccc(F)c2)c1=O [Example 214, 6-(4-Chlorophenyl)-2-(3-fluorophenyl)-N-[1-(hydroxymethyl)cyclopentyl]-3-oxo-2,3-dihydropyridazine-4-carboxamide]	8.32e-08	> 2e-05
O=C(NC1(CO)CCCCC1)c1cc(-c2ccc(Cl)cc2)nn(-c2cccc(F)c2)c1=O [Example 215, 6-(4-Chlorophenyl)-2-(3-fluorophenyl)-N-[1-(hydroxymethyl)cyclohexyl]-3-oxo-2,3-dihydropyridazine-4-carboxamide]	1.66e-07	> 2e-05
O=C(N[C@@H](CO)Cc1ccccc1)c1cc(-c2ccc(Cl)cc2)nn(-c2cccc(F)c2)c1=O [Example 219, (+)-6-(4-Chlorophenyl)-2-(3-fluorophenyl)-N-[(2R)-1-hydroxy-3-phenylpropan-2-yl]-3-oxo-2,3-dihydropyridazine-4-carboxamide]	3.38e-06	> 2e-05
O=C(NC(CO)CO)c1cc(-c2ccc(Cl)cc2)nn(-c2cccc(F)c2)c1=O [Example 228, 6-(4-Chlorophenyl)-N-(1,3-dihydroxypropan-2-yl)-2-(3-fluorophenyl)-3-oxo-2,3-dihydropyridazine-4-carboxamide]	3.35e-07	> 2e-05
CN1CCC(O)(CNC(=O)c2cc(-c3ccc(Cl)cc3)nn(-c3cccc(F)c3)c2=O)CC1 [Example 234, 6-(4-Chlorophenyl)-2-(3-fluorophenyl)-N-[(4-hydroxy-1-methylpiperidin-4-yl)methyl]-3-oxo-2,3-dihydropyridazine-4-carboxamide]	1.56e-06	> 2e-05
C[C@H](CO)NC(=O)c1cc(-c2ccc(C(F)(F)F)cc2)nn(-c2cccc(F)c2)c1=O [Example 238, 2-(3-Fluorophenyl)-N-[(2R)-1-hydroxypropan-2-yl]-3-oxo-6-[4-(trifluoromethyl)phenyl]-2,3-dihydropryridazine-4-carboxamide]	9.88e-08	> 2e-05
O=C(N[C@@H](CO)Cc1ccccc1)c1cc(-c2ccc(C(F)(F)F)cc2)nn(-c2cccc(F)c2)c1=O [Example 252, 2-(3-Fluorophenyl)-N-[(2R)-1-hydroxy-3-phenylpropan-2-yl]-3-oxo-6-[4-(trifluoromethyl)phenyl]-2,3-dihydropyridazine-4-carboxamide]	6.43e-06	> 2e-05
O=C(N[C@H]1COCC[C@H]1O)c1cc(-c2ccc(Cl)cc2)nn(-c2cccc(F)c2)c1=O [Example 273, 1,5-Anhydro-2-({[6-(4-chlorophenyl)-2-(3-fluorophenyl)-3-oxo-2,3-dihydropyridazin-4-yl]carbonyl}amino)-2,4-dideoxy-D-erythro-pentitol]	4.31e-08	> 2e-05
O=C(NC(CO)(CO)C(F)(F)F)c1cc(-c2ccc(Cl)cc2)nn(-c2cccc(F)c2)c1=O [Example 280, 6-(4-Chlorophenyl)-2-(3-fluorophenyl)-3-oxo-N-[1,1,1-trifluoro-3-hydroxy-2-(hydroxymethyl)propan-2-yl]-2,3-dihydropyridazine-4-carboxamide]	1.92e-08	> 2e-05
O=C(NCC(O)C(F)(F)F)c1cc(-c2ccc(Cl)c(F)c2)nn(-c2cccc(F)c2)c1=O (stereo not shown) [Example 282, 6-(4-chloro-3-fluorophenyl)-2-(3-fluorophenyl)-3-oxo-N-(3,3,3-trifluoro-2-hydroxypropyl)-2,3-dihydropyridazine-4-carboxamide]	1.81e-07	> 2e-05

— patent US11040035B2, “3-oxo-2,6-diphenyl-2,3-dihydropyridazine-4-carboxamides” (BAYER PHARMA AKTIENGESELLSCHAFT, priority 2016, dated 2021)
